Reference: paper PMC7708037, “Targeting OGG1 arrests cancer cell proliferation by inducing replication stress” (Nucleic Acids Research, 2020)

Experiments:
[1] = test system: MCM4 gene promoter in A3 cells; experiment: Oxidative DNA damage within MCM4 gene promoter (qPCR); format: cell-based, human; conditions: 10 μM, 72 h
Experimental: We adapted the procedure described by O’Callaghan et al. ([46]) to measure oxidative DNA damage at the MCM4 gene promoter region. This is a qPCR method based on differences in PCR kinetics between DNA template digested by FPG and undigested DNA. We have modified the original protocol to incorporate another purified human OGG1 to quantify the accumulation of base lesions specific for OGG1, 8-oxoguanine. Conditions used for incubation were 200 ng of gDNA together with 2.4 μM of hOGG1 during 4 h. The quantitative real-time amplification of genomic DNA was performed as described by O’Callaghan et al. ([46]). Specific primers were used at a final concentration of 100 nM (promoterMCM4-F: 5′-GCTGTGATTGGTGAGGCCC -3′; promoterMCM4-R: 5′-CAAACCGCGAGACCCAGAG-3′) . Amplification cycling conditions were 10 min at 95°C, followed by 40 cycles of 95°C for 15 s and 60°C for 1 min. ΔCT method was run in an ABI quant studio 1 and all samples were loaded and analyzed in triplicate.
Figure 6. TH5487 treatment induces a downregulation of DNA replication genes (A) Gene Set Enrichment analysis plot of the DNA Replication Gene Ontology Gene Set. […] Only genes with a mean normalized count >5 were analyzed. […] Statistical significance was determined using a two-sided unpaired t-test (ns, non-significant, *P < 0.05, **P < 0.01, ***P < 0.001 and ****P < 0.0001).

OGG1 enzyme = OGG1 enzyme (Homo sapiens, UniProt O15527); experiment: Cellular thermal shift assay in excised xenograft tumors; format: in vivo; set-up: endogenous in cells; host or cells: A3 T-cell acute lymphoblastic leukemia cells (luciferase-transfected) grown as subcutaneous xenograft tumours in NOD-SCID mice; conditions: A3 xenograft tumors excised following termination
Experimental: Animal experiments were conducted as per the European directive, ethical guideline and regulations of the regional animal ethical committee Stockholm 2010/63 (N8914). Upon arrival to animal facility, animals were acclimatized in the animal house for a week with ad lib food and water, with a 12 h light cycle and the temperature and humidity set according to laboratory animal guidelines and regulations. For the xenograft experiment involving inducible shRNA, 1 × 10^7 non-targeting luciferase transfected A3 cells in 50% matrigel in PBS were injected into flank region of BALB/c nude mice. Later, mice from non-targeting and shRNA groups were randomly divided into two groups containing eight mice per group. […] Tumor volume was measured using calipers (length × 0.52 × width × width) and bioluminescence images were taken using an IVIS spectrum in vivo imaging system (Perkin-Elmer) after intraperitoneal injection of D-luciferin (150 mg/kg in PBS). […] Following lysis by three freeze-thaw cycles, samples were centrifuged at 20 000 × g for 30 min, and OGG1 in the supernatant was detected by immunoblotting. […]
Figure 7. […] Tumors were excised following termination, and TH5487 target engagement was analyzed by cellular thermal shift assay, using an antibody specific for the human OGG1 protein. […]

Chain of OGG1 enzyme (O15527 whole entry): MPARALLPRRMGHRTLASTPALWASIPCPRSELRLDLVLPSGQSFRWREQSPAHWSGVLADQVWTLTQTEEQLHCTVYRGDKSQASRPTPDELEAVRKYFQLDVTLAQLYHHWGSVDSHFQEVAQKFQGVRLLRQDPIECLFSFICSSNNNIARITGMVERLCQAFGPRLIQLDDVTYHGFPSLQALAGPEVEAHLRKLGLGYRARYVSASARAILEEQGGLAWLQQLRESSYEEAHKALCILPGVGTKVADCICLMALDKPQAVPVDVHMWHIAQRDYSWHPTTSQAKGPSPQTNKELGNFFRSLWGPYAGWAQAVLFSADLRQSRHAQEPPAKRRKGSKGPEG

## O=C(Nc1ccc(I)cc1)N1CCC(n2c(=O)[nH]c3c(Br)cccc32)CC1 [TH5487]
[1]
  Oxidative DNA damage at SP1 binding motif of MCM4 promoter: significant accumulation of oxidative DNA damage
OGG1 enzyme
  OGG1 target engagement in xenograft tumor (CETSA): unable to demonstrate OGG1 target engagement
